Among the data in US20260193249A1, “PREPARATION OF PYRAZOLOPYRIDINE AND TRIAZOLOPYRIDINE DERIVATIVES AS NOVEL DIACYLGLYCERIDE O-ACYLTRANSFERASE 2 INHIBITORS” (Merck Sharp & Dohme LLC, priority 2022, published 2026) are IC50 values, retold here.

This test concerns the target T1, human DGAT2 (Homo sapiens, UniProt Q96PD7).
T1 construct: made in house; host or cells: Sf-9 insect cells (baculovirus), membrane fraction
T1 sequence (Q96PD7 1-388): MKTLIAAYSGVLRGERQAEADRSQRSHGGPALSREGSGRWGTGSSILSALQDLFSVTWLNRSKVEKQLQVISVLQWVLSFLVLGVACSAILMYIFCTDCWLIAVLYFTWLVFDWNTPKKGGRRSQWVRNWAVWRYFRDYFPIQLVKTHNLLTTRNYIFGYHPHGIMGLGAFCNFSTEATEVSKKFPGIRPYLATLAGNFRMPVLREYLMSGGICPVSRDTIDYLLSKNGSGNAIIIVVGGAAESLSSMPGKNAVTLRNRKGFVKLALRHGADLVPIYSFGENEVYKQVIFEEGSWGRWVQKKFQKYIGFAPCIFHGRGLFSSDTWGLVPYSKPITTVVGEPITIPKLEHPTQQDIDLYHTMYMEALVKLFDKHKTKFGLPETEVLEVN
Nature of the test: DGAT2 Enzymatic Activity Assay. Type of test: biochemical. Particulars: membrane prep of Sf-9 insect cells expressing hDGAT2; 13C18-triolein product by LC/MS/MS; 25 μM diolein, 5 μM 13C oleoyl-CoA. As to the method:
Sf-9 insect cells were maintained in Grace's insect cell culture medium with 10% heated-inactivated fetal bovine serum, 1% Pluronic F-68 and 0.14 μg/ml Kanamycine sulfate at 27° C. in a shaker incubator. After infection with untagged baculovirus expressing human DGAT2 (hDGAT2) at multiplicity of infection (MOI) 3 for 48 hours, cells were harvested. Cell pellets were suspended in buffer containing 10 mM Tris-HCl pH 7.5, 1 mM EDTA, 250 mM sucrose and Complete Protease Inhibitor Cocktail (Sigma Aldrich), and sonicated on ice. Cell debris were removed by centrifugation at 2000×g for 15 minutes. Membrane fractions were isolated by ultracentrifugation (100,000×g), resuspended in the same buffer, and frozen (−80° C.) for later use. The protein concentration was determined with the Pierce™ BCA Protein Assay Kit (Thermo Fisher Scientific).
LC/MS/MS analyses were performed using Thermal Fisher's LX4-TSQ Vantage system. This system consists of an Agilent binary high-performance liquid chromatography (HPLC) pump and a TSQ Vantage triple quadrupole MS/MS instrument. For each sample, 2 μL samples from the top organic layer of in-plate liquid-liquid extraction were injected onto a Thermo Betabasic C4 column (2.1 mm×20 mm, 5 μm particle size). The samples were then eluted using the following conditions; mobile phase: Isopropanol:acetonitrile/10 mM ammonium formate=50/35/15 (v/v/v), flow rate: 0.8 mL/min, temperature: 25° C. Data was acquired in positive mode using a heated electrospray ionization (HESI) interface. […] The peak area was integrated by Xcalibur Quan software. The ratio between the ^13C18triolein generated in the reaction and spiked in internal standard ^13C21-triolein was used to generate percentage inhibition and IC50 values. Compound percentage inhibition was calculated by the following formula: Inhibition %=1−[(compound response−low control)/(high control−low control)]×100%.
DGAT2 activity was determined by measuring the amount of enzymatic product ^13C18-triolein (^13C-1,2,3-Tri(cis-9-octadecenoyl)glycerol) using the membrane prep mentioned above. The assay was carried out in ABgene 384-well assay plates in a final volume of 25 μL at rt.
In general, IC50 refers to the concentration that gives 50% inhibition. As for `CN1C(C)(C)C(NC(=O)c2cc3cc(Oc4ncccc4OCC(F)(F)F)ccn3n2)CS1(=O)=O` (racemic) [Example 2, 5-((3-(2,2,2-Trifluoroethoxy)pyridin-2-yl)oxy)-N-(2,3,3-trimethyl-1,1-dioxidoisothiazolidin-4-yl)pyrazolo[1,5-a]pyridine-2-carboxamide], the IC50 stood at 787 nM.

`CC1(NC(=O)c2cc3cc(Oc4ncc(C(O)C5CC5)cc4OCC(F)(F)F)ccn3n2)CCS(=O)(=O)CC1` (single isomer, unassigned) [Example 43a, 5-((5-(Cyclopropyl(hydroxy)methyl)-3-(2,2,2-trifluoroethoxy)pyridin-2-yl)oxy)-N-(4-methyl-1,1-dioxidotetrahydro-2H-thiopyran-4-yl)pyrazolo[1,5-a]pyridine-2-carboxamide] gave an IC50 of 228 nM.

On to `CC1(NC(=O)c2cc3cc(Oc4ncc(C(O)C5CC5)cc4OCC(F)(F)F)ccn3n2)CCS(=O)(=O)CC1` (single isomer, unassigned) [Example 43b, 5-((5-(Cyclopropyl(hydroxy)methyl)-3-(2,2,2-trifluoroethoxy)pyridin-2-yl)oxy)-N-(4-methyl-1,1-dioxidotetrahydro-2H-thiopyran-4-yl)pyrazolo[1,5-a]pyridine-2-carboxamide], for which the 50% inhibitory concentration (IC50) was over 9990 nM.

With `CC(O)c1cnc(Oc2ccn3nc(C(=O)NC4(C)CCS(=O)(=O)CC4)cc3c2)c(OCC(F)(F)F)c1` (single isomer, unassigned) [Example 44a, 5-((5-(1-Hydroxyethyl)-3-(2,2,2-trifluoroethoxy)pyridin-2-yl)oxy)-N-(4-methyl-1,1-dioxidotetrahydro-2H-thiopyran-4-yl)pyrazolo[1,5-a]pyridine-2-carboxamide], the IC50 was 111 nM.

Turning to `CC(O)c1cnc(Oc2ccn3nc(C(=O)NC4(C)CCS(=O)(=O)CC4)cc3c2)c(OCC(F)(F)F)c1` (single isomer, unassigned) [Example 44b, 5-((5-(1-Hydroxyethyl)-3-(2,2,2-trifluoroethoxy)pyridin-2-yl)oxy)-N-(4-methyl-1,1-dioxidotetrahydro-2H-thiopyran-4-yl)pyrazolo[1,5-a]pyridine-2-carboxamide], the IC50 stood at 332 nM.

As to `CC1(NC(=O)c2cc3cc(Oc4ncc(C(O)C(F)(F)F)cc4OCC(F)(F)F)ccn3n2)CS(=O)(=O)C1` (single isomer, unassigned) [Example 45a, N-(3-Methyl-1,1-dioxidothietan-3-yl)-5-((5-(2,2,2-trifluoro-1-hydroxyethyl)-3-(2,2,2-trifluoroethoxy)pyridin-2-yl)oxy)pyrazolo[1,5-a]pyridine-2-carboxamide], the IC50 was over 9990 nM.

Consider `CC1(NC(=O)c2cc3cc(Oc4ncc(C(O)C(F)(F)F)cc4OCC(F)(F)F)ccn3n2)CS(=O)(=O)C1` (single isomer, unassigned) [Example 45b, N-(3-Methyl-1,1-dioxidothietan-3-yl)-5-((5-(2,2,2-trifluoro-1-hydroxyethyl)-3-(2,2,2-trifluoroethoxy)pyridin-2-yl)oxy)pyrazolo[1,5-a]pyridine-2-carboxamide], for which half-maximal inhibition (IC50) required 1560 nM.

The compound `CC(O)c1c(C(=O)NC2(C)CCS(=O)(=O)CC2)nn2ccc(Oc3ncccc3OCC(F)(F)F)cc12` (single isomer, unassigned) [Example 52a, 3-(1-Hydroxyethyl)-N-(4-methyl-1,1-dioxidotetrahydro-2H-thiopyran-4-yl)-5-((3-(2,2,2-trifluoroethoxy)pyridin-2-yl)oxy)pyrazolo[1,5-a]pyridine-2-carboxamide] yielded an IC50 of 1590 nM.

Compound `CC(O)c1c(C(=O)NC2(C)CCS(=O)(=O)CC2)nn2ccc(Oc3ncccc3OCC(F)(F)F)cc12` (single isomer, unassigned) [Example 52b, 3-(1-Hydroxyethyl)-N-(4-methyl-1,1-dioxidotetrahydro-2H-thiopyran-4-yl)-5-((3-(2,2,2-trifluoroethoxy)pyridin-2-yl)oxy)pyrazolo[1,5-a]pyridine-2-carboxamide] had a concentration for half-maximal inhibition (IC50) of 333 nM.

Turning to `CC1(NC(=O)c2cc3cc(Oc4ncccc4OCC(F)(F)F)ccn3n2)CCS(=O)(=O)CC1` [Example 1, N-(4-Methyl-1,1-dioxidotetrahydro-2H-thiopyran-4-yl)-5-((3-(2,2,2-trifluoroethoxy)pyridin-2-yl)oxy)pyrazolo[1,5-a]pyridine-2-carboxamide], the IC50 was 9.7 nM.

`CC(C)(CNS(C)(=O)=O)NC(=O)c1cc2cc(Oc3ncccc3OCC(F)(F)F)ccn2n1` [Example 3, N-(2-Methyl-1-(methylsulfonamido)propan-2-yl)-5-((3-(2,2,2-trifluoroethoxy)pyridin-2-yl)oxy)pyrazolo[1,5-a]pyridine-2-carboxamide] came in with an IC50 of 694 nM.

In the case of `O=C(NC1CCCN(CC(F)(F)F)C1=O)c1cc2cc(Oc3ncccc3OCC(F)(F)F)ccn2n1` (stereo not shown) [Example 4, N-(2-Oxo-1-(2,2,2-trifluoroethyl)piperidin-3-yl)-5-((3-(2,2,2-trifluoroethoxy)pyridin-2-yl)oxy)pyrazolo[1,5-a]pyridine-2-carboxamide], half-maximal inhibition (IC50) required 309 nM.

With `CC1(NC(=O)c2cc3cc(Oc4ncccc4OCC(F)(F)F)ccn3n2)CS(=O)(=O)C1` [Example 5, N-(3-Methyl-1,1-dioxidothietan-3-yl)-5-((3-(2,2,2-trifluoroethoxy)pyridin-2-yl)oxy)pyrazolo[1,5-a]pyridine-2-carboxamide], the IC50 is 149 nM.

As for `O=C(N[C@H]1CCOC1)c1cc2cc(Oc3ncccc3OCC(F)(F)F)ccn2n1` [Example 6, (S)-N-(Tetrahydrofuran-3-yl)-5-((3-(2,2,2-trifluoroethoxy)pyridin-2-yl)oxy)pyrazolo[1,5-a]pyridine-2-carboxamide], the IC50 is over 9990 nM.

Regarding `O=C(NC1CCCC1)c1cc2cc(Oc3ncccc3OCC(F)(F)F)ccn2n1` [Example 7, N-Cyclopentyl-5-((3-(2,2,2-trifluoroethoxy)pyridin-2-yl)oxy)pyrazolo[1,5-a]pyridine-2-carboxamide], 1070 nM corresponded to half-maximal inhibition (IC50).

Consider `C[C@@]1(NC(=O)c2cc3cc(Oc4nccnc4OCC(F)F)ccn3n2)CCS(=O)(=O)C1` [Example 8, (R)-5-((3-(2,2-Difluoroethoxy)pyrazin-2-yl)oxy)-N-(3-methyl-1,1-dioxidotetrahydrothiophen-3-yl)pyrazolo[1,5-a]pyridine-2-carboxamide], for which the IC50 came out at 211 nM.

With `CC1(NC(=O)c2cc3cc(Oc4nccnc4OCC(F)F)ccn3n2)CCS(=O)(=O)CC1` [Example 9, 5-((3-(2,2-Difluoroethoxy)pyrazin-2-yl)oxy)-N-(4-methyl-1,1-dioxidotetrahydro-2H-thiopyran-4-yl)pyrazolo[1,5-a]pyridine-2-carboxamide], the concentration for half-maximal inhibition (IC50) amounted to 2.3 nM.

The compound `CC1(NC(=O)c2cc3cc(Oc4ncc(F)cc4OC4CC4)ccn3n2)CCS(=O)(=O)CC1` [Example 10, 5-((3-Cyclopropoxy-5-fluoropyridin-2-yl)oxy)-N-(4-methyl-1,1-dioxidotetrahydro-2H-thiopyran-4-yl)pyrazolo[1,5-a]pyridine-2-carboxamide] yielded an IC50 of 85 nM.

In turn, `CC1(NC(=O)c2cc3cc(Oc4ncc(F)cc4OCC(F)F)ccn3n2)CS(=O)(=O)C1` [Example 11, 5-((3-(2,2-Difluoroethoxy)-5-fluoropyridin-2-yl)oxy)-N-(3-methyl-1,1-dioxidothietan-3-yl)pyrazolo[1,5-a]pyridine-2-carboxamide] returned a concentration for half-maximal inhibition (IC50) of 2.5 nM.
